Source: patent US20030175906A1, “Nuclease resistant chimeric oligonucleotides” (priority 2001, published 2003)

Assays:
Target RNA = experiment: Tm values of L-thymidine modified oligonucleotides against RNA; type: binding
[1] = In vivo nuclease stability of L/D-oligonucleotide chimera, full-length oligonucleotide in organs by CGE; set-up: species or system BalbC mouse; settings: IV bolus, after 24 h
Experimental: Here we report the in vivo nuclease stability of L/D-oligonucleotide chimera in mouse. We synthesized the phosphoramidite and CPG derived from L-thymidine, which was synthesized from a novel route [Jung, E. M.; Xu, Y. Tetrahedron Lett. 1997, 24, 4199-4202]. A 20 mer phosphorothioate oligonucleotide ISIS-120745 (antisense to mouse ICAM-1) was capped with L-2′-deoxy thymidine at 3′ and 5′-positions. The oligonucleotide was then administered IV bolus into BalbC mouse. After 24 h. mouse was sacrificed and the oligonucleotide was isolated from different organs. Percentage of full-length oligonucleotide present in different organs were analyzed by CGE.

Row | Substance | ΔTm (Target RNA) [°C] | intact full-length oligonucleotide isolated from all the major organs [1] [%] | Tm, Target RNA (Target RNA) [°C]
1 | ISIS 120745: 5′ T*GC ATC CCC CAG GCC ACC AT* 3′, T* = L-Thymidine, all P=S; antisense to mouse ICAM-1 (antisense TGCATCCCCCAGGCCACCAT; chemistry not fully specified) | −1.76 | > 90 | –
2 | ISIS 121785: 5′ T*C^oC^oGCGCTGTGATGCA^oT^oT* 3′ (SEQ ID NO:2), L-thymidine caps, 2′-O-MOE, all P=S (DNA NNNCGCTGTGATGCNNN; L-thymidine caps, 2'-O-MOE, phosphorothioate, chemistry not fully specified) | 2.7 | – | 63.3
